Measured values published in US11512080B2, “CRBN ligands and uses thereof” (Kymera Therapeutics, Inc., priority 2018, dated 2022).

What follows are compounds tested against His-tagged CRBN-DDB1 complex (Homo sapiens (Human), UniProt Q96SW2) (assay: Time-Resolved Fluorescence Resonance Energy Transfer (TR-FRET) assay). Conditions: competition with Cy5-labeled thalidomide (8 nM), 1 hour at room temperature; read-out: CRBN HTRF IC50.
Assay type: binding
Procedure: The mixture were incubated at room temperature for 1 hour. […] Quantitative loss of FRET efficiency as a function of compound concentrations was fitted by a four-parameter Logistic Function using GraphPad Prism 7.0 and the IC50 values were reported for each compound.
The compound numbers correspond to the compound numbers in Table 1.

Sequence of His-tagged CRBN-DDB1 complex (Q96SW2 whole entry): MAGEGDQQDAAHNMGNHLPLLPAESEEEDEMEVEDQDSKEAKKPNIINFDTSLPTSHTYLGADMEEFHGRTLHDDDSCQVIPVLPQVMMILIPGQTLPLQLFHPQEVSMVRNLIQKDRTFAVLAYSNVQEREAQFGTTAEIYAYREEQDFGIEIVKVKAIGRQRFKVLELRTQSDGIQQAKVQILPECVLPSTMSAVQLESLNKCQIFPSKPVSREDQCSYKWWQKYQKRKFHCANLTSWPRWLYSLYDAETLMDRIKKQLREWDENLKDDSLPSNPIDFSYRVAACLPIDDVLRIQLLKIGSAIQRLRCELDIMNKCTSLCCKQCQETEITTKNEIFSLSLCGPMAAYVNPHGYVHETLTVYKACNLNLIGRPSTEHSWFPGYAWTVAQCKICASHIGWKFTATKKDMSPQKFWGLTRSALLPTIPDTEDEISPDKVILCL
Sequence of His-tagged CRBN-DDB1 complex (Q16531 whole entry partner): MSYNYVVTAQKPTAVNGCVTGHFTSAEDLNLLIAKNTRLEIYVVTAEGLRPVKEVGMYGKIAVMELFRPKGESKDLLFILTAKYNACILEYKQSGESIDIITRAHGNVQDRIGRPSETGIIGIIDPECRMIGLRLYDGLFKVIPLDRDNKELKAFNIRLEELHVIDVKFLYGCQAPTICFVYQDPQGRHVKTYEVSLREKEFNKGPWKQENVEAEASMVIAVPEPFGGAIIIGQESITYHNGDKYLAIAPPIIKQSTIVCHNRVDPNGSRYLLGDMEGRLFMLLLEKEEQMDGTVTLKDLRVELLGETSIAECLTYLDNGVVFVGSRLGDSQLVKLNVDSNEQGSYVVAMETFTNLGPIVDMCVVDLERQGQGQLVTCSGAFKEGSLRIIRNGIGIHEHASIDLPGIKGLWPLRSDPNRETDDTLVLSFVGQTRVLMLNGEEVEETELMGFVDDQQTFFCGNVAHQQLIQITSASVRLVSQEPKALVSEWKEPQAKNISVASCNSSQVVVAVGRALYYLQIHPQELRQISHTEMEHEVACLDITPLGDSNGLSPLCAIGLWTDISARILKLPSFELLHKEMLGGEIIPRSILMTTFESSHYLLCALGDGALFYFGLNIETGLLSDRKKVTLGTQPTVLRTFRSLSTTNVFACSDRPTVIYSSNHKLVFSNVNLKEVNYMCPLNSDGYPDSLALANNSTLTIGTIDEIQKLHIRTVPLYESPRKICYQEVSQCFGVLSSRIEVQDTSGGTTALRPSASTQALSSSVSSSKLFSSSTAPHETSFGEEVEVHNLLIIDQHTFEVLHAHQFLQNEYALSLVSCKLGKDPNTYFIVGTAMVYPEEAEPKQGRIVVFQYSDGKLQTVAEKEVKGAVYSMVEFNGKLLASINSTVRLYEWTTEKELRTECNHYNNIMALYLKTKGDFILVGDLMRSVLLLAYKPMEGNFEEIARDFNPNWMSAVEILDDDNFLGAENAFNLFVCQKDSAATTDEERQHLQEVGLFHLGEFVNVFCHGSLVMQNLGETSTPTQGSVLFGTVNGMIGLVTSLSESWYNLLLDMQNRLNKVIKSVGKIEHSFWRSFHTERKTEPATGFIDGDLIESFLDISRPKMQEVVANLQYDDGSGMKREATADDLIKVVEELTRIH

Compound | IC50 [µM]
CN1Cc2ccccc2C(N2CCC(=O)NC2=O)C1=O (stereo not shown) [Compound I-145, 1-(2-Methyl-3-oxo-1,2,3,4-tetrahydroisoquinolin-4-yl)dihydropyrimidine-2,4(1H,3H)-dione] | > 100
Cn1cc2ccccc2c(N2CCC(=O)NC2=O)c1=O [Compound I-146, 1-(2-Methyl-3-oxo-2,3-dihydroisoquinolin-4-yl)dihydropyrimidine-2,4(1H,3H)-dione] | > 100

Other lines, results leading:

IC50 [µM] | Compound
> 100 | Cn1cccc(N2CCC(=O)NC2=O)c1=O [Compound I-143]
> 100 | Cn1c(=O)c(N2CCC(=O)NC2=O)cc2ccccc21 [Compound I-144, 1-(1-Methyl-2-oxo-1,2-dihydroquinolin-3-yl)dihydropyrimidine-2,4(1H,3H)-dione]

Same assay, conditions: read-out: CRBN HTRF IC50

Compound | IC50 [µM]
NC(=O)c1ccnc(SC2CCC(=O)NC2=O)c1 (stereo not shown) [Compound I-130, 2-((2,6-Dioxopiperidin-3-yl)thio)isonicotinamide] | 1 to 10
CNC(=O)c1ccnc(SC2CCC(=O)NC2=O)c1 (stereo not shown) [Compound I-131, 2-((2,6-Dioxopiperidin-3-yl)thio)-N-methylisonicotinamide] | 10 to 100
CN(C)C(=O)c1ccnc(SC2CCC(=O)NC2=O)c1 (stereo not shown) [Compound I-132, 2-((2,6-Dioxopiperidin-3-yl)thio)-N,N-dimethylisonicotinamide] | 10 to 100
O=C1CCC(Sc2ccc(C(=O)O)cn2)C(=O)N1 (stereo not shown) [Compound I-133, 6-((2,6-Dioxopiperidin-3-yl)thio)nicotinic Acid] | 10 to 100
CCN(CC)c1ccc(SC2CCC(=O)NC2=O)cc1 (stereo not shown) [Compound I-135] | 1 to 10
O=C1CCC(Sc2cccc(C(=O)O)n2)C(=O)N1 (stereo not shown) [Compound I-136] | 1 to 10
Cc1coc(-c2ccnc(SC3CCC(=O)NC3=O)c2)n1 (stereo not shown) [Compound I-138, 3-((4-(4-Methyloxazol-2-yl)pyridin-2-yl)thio)piperidine-2,6-dione] | 1 to 10
O=C1CCC(Sc2cc(-c3nn[nH]n3)ccn2)C(=O)N1 (stereo not shown) [Compound I-139, 3-((4-(2H-Tetrazol-5-yl)pyridin-2-yl)thio)piperidine-2,6-dione] | 1 to 10
NC(=O)c1cccnc1SC1CCC(=O)NC1=O (stereo not shown) [Compound I-140, 2-((2,6-Dioxopiperidin-3-yl)thio)nicotinamide] | 1 to 10
CN(C)C(=O)c1cccnc1SC1CCC(=O)NC1=O (stereo not shown) [Compound I-141] | 10 to 100

Now from value to compound:

IC50 [µM] | Compound
10 to 100 | CN1CCN(c2ccc(OC3CCC(=O)NC3=O)cc2)CC1 (stereo not shown) [Compound I-128]
10 to 100 | O=C1CCC(Oc2cccc3cccnc23)C(=O)N1 (stereo not shown) [Compound I-129]
10 to 100 | N#Cc1cccc(SC2CCC(=O)NC2=O)c1 (stereo not shown) [Compound I-134]
10 to 100 | Cc1c(SC2CCC(=O)NC2=O)cccc1C(=O)O (stereo not shown) [Compound I-137, 3-((2,6-Dioxopiperidin-3-yl)thio)-2-methylbenzoic acid]
1 to 10 | COCCOCCNC(=O)c1cccnc1SC1CCC(=O)NC1=O (stereo not shown) [Compound I-142]
